Measured values as given in patent US11925608B2 (YS PHARMTECH, priority 2017, dated 2024).
Read-outs that look alike come from different tables or passages of the source.

Experiments:
[1] = Stability of epinephrine formulations after 1 month storage at 50° C. (HPLC potency, degradants, pH, appearance, O.D.); format: physicochemical
Protocol: Selected samples were also tested for drug chirality. The potency and chirality of drug were analyzed using HPLC methods. The degree of coloration was visually inspected and analytically measured their optical densities using a UV/VIS spectrophotometer at the maximum absorption wavelength (λmax) at 485 nm.

[2] = aqueous solution, cited from earlier work
[3] = 1:10 cysteine-to-drug complex and commercial formulation
[4] = non-complex, acetylcysteine levels
[5] = non-complex, mixed antioxidants
[6] = non-complex, thioglycerol levels
[7] = pediatric formulations (1:2000)

Structure (SMILES): II [0.0005N Iodine]
- Appearance ([1]; 1:1 cysteine-to-drug): Slightly brownish
- O.D. (Absorbance at λmax = 485 nm) ([1]; 1:1 cysteine-to-drug): 0.1206
- Appearance [1, 3]: Slightly brownish
- O.D. (Absorbance at λmax = 485 nm) [1, 3]: 0.1354
- Appearance ([1]; 2:1 cysteine-to-drug): Slightly brownish
- O.D. (Absorbance at λmax = 485 nm) ([1]; 2:1 cysteine-to-drug): 0.1206
- Appearance ([1]; 5:1 cysteine-to-drug): Slightly brownish
- O.D. (Absorbance at λmax = 485 nm) ([1]; 5:1 cysteine-to-drug): 0.1290
- Appearance [1, 4]: Slightly brownish
- O.D. (Absorbance at λmax = 485 nm) [1, 4]: 0.1354
- Appearance ([1]; non-complex, cysteine levels): Slightly brownish
- O.D. (Absorbance at λmax = 485 nm) ([1]; non-complex, cysteine levels): 0.1354
- Appearance [1, 5]: Slightly brownish
- O.D. (Absorbance at λmax = 485 nm) [1, 5]: 0.1354
- Appearance [1, 6]: Slightly brownish
- O.D. (Absorbance at λmax = 485 nm) [1, 6]: 0.1354
- Appearance [1, 7]: Slightly brownish
- O.D. (Absorbance at λmax = 485 nm) [1, 7]: 0.1354

Structure (SMILES): CNCC(O)c1ccc(O)c(O)c1 (single isomer, unassigned; (-)) [epinephrine, (−)-3,4-Dihydroxy-α-[(methylamino)methyl]benzyl alcohol]
- association constant (K) of the inclusion complex with SBEβCD ([2]; pH 3.5): 488 M⁻¹
- association constant (K) of the inclusion complex with SBEβCD ([2]; pH 5.5): 111 M⁻¹
